“Also recorded” adds a separate entry of the source. Where a SMILES comes first, the peptide text is derived from it.
Key:
[1] = target: T1, KcsA-Kv1.2 T-only chimera (Streptomyces lividans, UniProt P0A334, R52A/G53D/A54E/P55R/G56E/A57S/L59F/I60P/T61S/Y62I/R64D); test: Phage-binding competition assay, KcsA-Kv1.2 T-only; design: species or system human Kv1.2 turret in Streptomyces lividans KcsA; conditions: for binding to KcsA-Kv1.2 T-only, in words: HgTx1-phage competition, Fig. 7E (ligand-binding pattern); for Rank, T-only chimera (Kv1.2): rank by competition IC50 among MTX, ShK, KTX1
T1 sequence (P0A334 1-160 R52A/G53D/A54E/P55R/G56E/A57S/L59F/I60P/T61S/Y62I/R64D): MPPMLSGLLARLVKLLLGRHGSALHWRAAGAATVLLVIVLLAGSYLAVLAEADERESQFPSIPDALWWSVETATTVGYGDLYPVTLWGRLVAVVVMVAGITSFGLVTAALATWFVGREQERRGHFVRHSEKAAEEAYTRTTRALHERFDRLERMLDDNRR
Procedure: Phage stock solutions were diluted to working concentration with phage resuspension buffer supplemented with 2 mM DDM. For protein immobilization, the following amounts were used in a final volume of 50 μl/well: wt KcsA, 0.1 μg; KcsA-Kv1.1 T-only, 0.005 μg; KcsA-Kv1.1 T+F, 0.02 μg; KcsA-Kv1.2 T-only, 0.01 μg; KcsA-Kv1.2 T+F, 0.1 μg; KcsA-Kv1.3 T-only, 0.01 μg; and KcsA-Kv1.3 T+F, 0.1 μg. Protein samples were diluted in 50 μl of storage buffer (20 mM Tris pH8.0, 300 mM KCl, 2 mM DDM) and were added to the designated wells of a Pierce Clear, 96-Well Nickel Coated Plate (15442, Thermo Fisher Scientific), then incubated for 1 h at room temperature on a horizontal shaker at 130 rpm. The plate was blocked for 1 h at room temperature with 180 μl/well TBS-BSA supplemented with 1 mM DDM. Following blocking, the wells were washed 4× with washing buffer (300 μl TBS-Tween, 0.1% v/v) using a Wellwash Versa microplate washer (Thermo Fisher Scientific); then 50 μl phage solution (in TBS-BSA-Tween, 0.1% v/v, 2 mM DDM) at determined phage concentration was added to the wells and incubated for 1 h at room temperature on a horizontal shaker. The plate was washed 4× with washing buffer, then 50 μl anti-M13 IgG HRP (MA5-36125, Invitrogen) diluted to 1:2500 in TBS-Tween (0.1% v/v) was added to the wells and incubated for 1 h at room temperature. The plate was washed again 4× with 300 μl/well washing buffer. Finally, 50 μl/well 1-Step Ultra TMB-ELISA solution (34028, Thermo Fisher Scientific) was added to the wells, and the developing signal was stopped with 50 μl 1M HCl after 5 to 10 min. The light absorbance signal was read at 450 nm with Byonoy absorbance 96 plate reader (Byonoy GmbH).
For protein immobilization, the following amounts were used in a final volume of 50 μl/well: KcsA-Kv1.1 T-only, 0.005 μg; KcsA-Kv1.1 T+F, 0.01 μg; KcsA-Kv1.2 T-only, 0.025 μg; KcsA-Kv1.2 T+F, 0.0125 μg; KcsA-Kv1.3 T-only, 0.01 μg; and KcsA-Kv1.3 T+F, 0.1 μg. Protein samples were diluted in storage buffer. Binding of given concentrations of relevant ligand-displaying phages quantified by light absorbance ([…]) were investigated in a similar manner as in phage ELISA-binding assay, while different concentrations of competing toxin test substances were applied simultaneously. The results were converted to percent inhibitions (percent displacement) of the indicator phage binding, and relative affinities of the tested toxins were assessed by plotting percent displacements against log concentrations and determining half maximal inhibitory concentrations (IC50) by sigmoidal curve fitting using “Sigmoidal dose-response (variable slope) with least squares method” algorithm in GraphPad Prism 8 using the following equation: Y=Bottom+Top−Bottom/1+10^(LogEC50−×)⋅HillSlope

[2] = tested on: human Kv1.1 channel (hKv1.1); test: Whole-cell patch-clamp, hKv1.1-expressing CHO cells; format: cell-based; conditions: see Table 1 and Fig. S3; 1 nM peptide in patch-clamp
Procedure: Chinese Hamster Ovarian cells were grown in Dulbecco’s modified Eagle’s medium–high glucose supplemented with 10% FBS, 2 mM L-glutamine, 100 U/ml penicillin-g, and 100 μg/ml streptomycin (Invitrogen) at 37 °C in a 5% CO2 and 95% air humidified atmosphere. Cells were passaged twice per week following a 5 min incubation in PBS containing 0.2 g/L EDTA. Chinese Hamster Ovarian cells were transiently transfected with plasmids encoding human Kv1.1 (hKCNA1 gene) and human Kv1.2 (hKCNA2 gene) in pCMV6-AC-GFP plasmid (RG211000 and RC222200, OriGene Technologies) using Lipofectamine 2000 (Invitrogen) following the manufacturer’s protocol, then cultured under standard conditions. Transfected cells were washed twice with 2 ml of extracellular solution (ECS, see below) and replated onto 35 mm polystyrene cell culture dishes (Cellstar, Greiner Bio-One) before the patch-clamp experiments. […] In general, currents were recorded 24 to 36 h after transfection.
Conventional whole-cell patch-clamp electrophysiology was used to record ionic currents. Micropipettes were pulled from GC150F-7.5 borosilicate capillaries (Harvard Apparatus) with tip diameters between 0.5 and 1 μm resulting in a tip resistance of 2 to 8 MΩ in the extracellular (bath) solution. […]
Native peptides, phage-expressed peptides, and positive controls used for them were dissolved in ECS supplemented with 0.1 mg/ml bovine serum albumin (BSA; Sigma-Aldrich Hungary). Bath perfusion around the measured cell with different extracellular solutions was achieved using a gravity flow micro perfusion system using a rate of 0.5 ml/min. […]
Voltage protocols: For measurement of Kv1.1 to 1.3 currents, voltage steps to +50 mV were applied from a holding potential of −120 mV and the peak current was measured every 15 s. […] The remaining current fraction at a given molar concentration was calculated as I/I0, where I0 is the peak current in the absence and I is the peak current at equilibrium block or […] after ∼2 min perfusion by the investigated peptide/phage.

SMILES	binding to KcsA-Kv1.2 T-only, in words [1]	binding to KcsA-Kv1.2 T-only, in words ([1]; listed as MTX1)	Rank, T-only chimera (Kv1.2) [1]	potency ranking, Kv1.1 [2]
CC[C@H](C)[C@@H]1NC(=O)[C@@H]2CSSC[C@H](NC(=O)[C@H](CO)NC(=O)[C@@H](N)C(C)C)C(=O)N[C@@H]([C@@H](C)O)C(=O)NCC(=O)N[C@@H](CO)C(=O)N[C@@H](CCCCN)C(=O)N[C@@H](CC(=O)O)C(=O)N[C@@H](CSSC[C@@H](C(=O)N[C@@H](CCCCN)C(=O)N[C@H]3CSSC[C@@H](C(N)=O)NC(=O)CNC(=O)[C@H](Cc4ccc(O)cc4)NC3=O)NC(=O)[C@H](CO)NC(=O)[C@H](CCCCN)NC(=O)[C@H](CC(N)=O)NC1=O)C(=O)N[C@@H](Cc1ccc(O)cc1)C(=O)N[C@@H](C)C(=O)N1CCC[C@H]1C(=O)N[C@H]1CSSC[C@H](NC(=O)CNC(=O)[C@H]([C@@H](C)O)NC(=O)[C@H](CCC(N)=O)NC(=O)[C@H](CCCCN)NC(=O)[C@H](CCCNC(=N)N)NC1=O)C(=O)N1CCC[C@H]1C(=O)N[C@@H](CC(N)=O)C(=O)N[C@@H](C)C(=O)N[C@@H](CCCCN)C(=O)N2 [MTX, Maurotoxin] (HELM PEPTIDE1{V.S.C.T.G.S.K.D.C.Y.A.P.C.R.K.Q.T.G.C.P.N.A.K.C.I.N.K.S.C.K.C.Y.G.C.[am]}$PEPTIDE1,PEPTIDE1,3:R3-24:R3|PEPTIDE1,PEPTIDE1,9:R3-29:R3|PEPTIDE1,PEPTIDE1,13:R3-19:R3|PEPTIDE1,PEPTIDE1,31:R3-34:R3$$$V2.0; N-terminus and C-terminus assumed)	ShK > KTX1 > MTX; also recorded: completely lost its affinity	negligible binding	3	ShK > KTX1 >> MTX; also recorded: ShK > KTX1 > MTX
CC[C@H](C)[C@@H]1NC(=O)[C@@H](NC(=O)[C@H](CO)NC(=O)[C@@H](N)CCCNC(=N)N)CSSC[C@@H](C(=O)O)NC(=O)[C@H]([C@@H](C)O)NC(=O)CNC(=O)[C@@H]2CSSC[C@@H]3NC(=O)[C@H](CCC(N)=O)NC(=O)[C@H](Cc4ccccc4)NC(=O)[C@H](C)NC(=O)[C@H]([C@@H](C)O)NC(=O)[C@H](CSSC[C@H](NC(=O)[C@H](Cc4ccccc4)NC(=O)[C@H](CO)NC(=O)[C@H](CC(C)C)NC(=O)[C@H](CCCNC(=N)N)NC(=O)[C@H](Cc4ccc(O)cc4)NC(=O)[C@H](CCCCN)NC(=O)[C@H](CCSC)NC(=O)[C@H](CO)NC(=O)[C@H](Cc4c[nH]cn4)NC(=O)[C@H](CCCCN)NC3=O)C(=O)N[C@@H](CCCNC(=N)N)C(=O)N[C@@H](CCCCN)C(=O)N[C@@H]([C@@H](C)O)C(=O)N2)NC(=O)[C@H](CCCNC(=N)N)NC(=O)[C@H](CO)NC(=O)[C@H](CCCCN)NC(=O)[C@@H]2CCCN2C(=O)[C@H]([C@@H](C)CC)NC(=O)[C@H]([C@@H](C)O)NC(=O)[C@H](CC(=O)O)NC1=O [ShK, Stichodactyla toxin]	inconsistent with their published channel blocking potencies; also recorded: ShK > KTX1 > MTX		1	ShK > KTX1 >> MTX; also recorded: ShK > KTX1 > MTX
CC[C@H](C)[C@H](NC(=O)[C@H](CCC(=O)O)NC(=O)[C@@H](NC(=O)CN)C(C)C)C(=O)N[C@@H](CC(N)=O)C(=O)N[C@H](C(=O)N[C@@H](CCCCN)C(=O)N[C@H]1CSSC[C@@H]2NC(=O)[C@H](CCCCN)NC(=O)CNC(=O)[C@H](Cc3ccccc3)NC(=O)[C@H](CCCNC(=N)N)NC(=O)[C@H](CCSC)NC(=O)CNC(=O)[C@H](C)NC(=O)[C@H](CC(=O)O)NC(=O)[C@H](CCCCN)NC(=O)[C@@H]3CSSC[C@@H](C(=O)N[C@H](C(=O)N4CCC[C@H]4C(=O)N[C@@H](CCCCN)C(=O)O)[C@@H](C)O)NC(=O)[C@H](Cc4c[nH]cn4)NC(=O)[C@H](CSSC[C@H](NC(=O)[C@H](CCC(N)=O)NC(=O)[C@@H]4CCCN4C(=O)[C@H](CO)NC(=O)CNC(=O)[C@H](CO)NC1=O)C(=O)N[C@@H](CC(C)C)C(=O)N[C@@H](CCCCN)C(=O)N1CCC[C@H]1C(=O)N3)NC(=O)[C@H](CCCCN)NC(=O)[C@H](CCCNC(=N)N)NC(=O)[C@H](CC(N)=O)NC(=O)[C@H](CCSC)NC2=O)C(C)C [KTX1, Kaliotoxin-1]	inconsistent with their published channel blocking potencies; also recorded: ShK > KTX1 > MTX		2	ShK > KTX1 >> MTX; also recorded: ShK > KTX1 > MTX
